ChEMBL document CHEMBL5291721, “A preclinical secondary pharmacology resource illuminates target-adverse drug reaction associations of marketed drugs” (Nat Commun, 2023)

Experiments:
[1] = molecular target: T1, Alpha-1A adrenergic receptor (Homo sapiens, UniProt P35348); type: functional, cell-based
T1 sequence (P35348 whole entry): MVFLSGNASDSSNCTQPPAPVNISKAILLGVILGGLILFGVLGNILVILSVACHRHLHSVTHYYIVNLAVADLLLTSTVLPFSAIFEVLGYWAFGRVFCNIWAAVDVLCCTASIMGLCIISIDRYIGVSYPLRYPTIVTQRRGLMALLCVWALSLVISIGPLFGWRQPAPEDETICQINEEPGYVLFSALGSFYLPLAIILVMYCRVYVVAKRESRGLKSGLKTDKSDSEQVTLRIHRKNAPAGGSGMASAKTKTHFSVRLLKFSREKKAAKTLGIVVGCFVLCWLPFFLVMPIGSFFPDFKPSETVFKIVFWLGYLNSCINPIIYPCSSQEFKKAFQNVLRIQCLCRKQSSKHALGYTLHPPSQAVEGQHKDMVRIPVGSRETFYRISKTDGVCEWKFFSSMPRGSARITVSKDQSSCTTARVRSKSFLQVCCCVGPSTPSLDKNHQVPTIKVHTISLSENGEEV

[2] = molecular target: T2, Alpha-2A adrenergic receptor (Homo sapiens, UniProt P08913); type: functional, cell-based
T2 sequence (P08913 whole entry): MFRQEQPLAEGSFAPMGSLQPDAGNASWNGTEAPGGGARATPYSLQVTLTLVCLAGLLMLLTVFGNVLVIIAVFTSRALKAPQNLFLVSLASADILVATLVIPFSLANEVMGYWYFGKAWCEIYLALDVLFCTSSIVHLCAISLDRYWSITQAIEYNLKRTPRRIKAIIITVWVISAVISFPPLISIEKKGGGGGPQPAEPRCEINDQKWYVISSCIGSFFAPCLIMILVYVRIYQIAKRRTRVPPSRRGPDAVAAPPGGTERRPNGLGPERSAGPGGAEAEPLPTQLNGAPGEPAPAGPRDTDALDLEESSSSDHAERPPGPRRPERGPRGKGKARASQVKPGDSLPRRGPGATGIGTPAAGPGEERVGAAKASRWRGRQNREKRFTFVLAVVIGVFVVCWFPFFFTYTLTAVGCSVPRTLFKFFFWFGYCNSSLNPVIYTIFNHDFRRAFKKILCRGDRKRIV

[3] = molecular target: 3',5'-cyclic-AMP phosphodiesterase 4D (Homo sapiens, UniProt Q08499); type: functional
Chain of 3',5'-cyclic-AMP phosphodiesterase 4D (Q08499 whole entry): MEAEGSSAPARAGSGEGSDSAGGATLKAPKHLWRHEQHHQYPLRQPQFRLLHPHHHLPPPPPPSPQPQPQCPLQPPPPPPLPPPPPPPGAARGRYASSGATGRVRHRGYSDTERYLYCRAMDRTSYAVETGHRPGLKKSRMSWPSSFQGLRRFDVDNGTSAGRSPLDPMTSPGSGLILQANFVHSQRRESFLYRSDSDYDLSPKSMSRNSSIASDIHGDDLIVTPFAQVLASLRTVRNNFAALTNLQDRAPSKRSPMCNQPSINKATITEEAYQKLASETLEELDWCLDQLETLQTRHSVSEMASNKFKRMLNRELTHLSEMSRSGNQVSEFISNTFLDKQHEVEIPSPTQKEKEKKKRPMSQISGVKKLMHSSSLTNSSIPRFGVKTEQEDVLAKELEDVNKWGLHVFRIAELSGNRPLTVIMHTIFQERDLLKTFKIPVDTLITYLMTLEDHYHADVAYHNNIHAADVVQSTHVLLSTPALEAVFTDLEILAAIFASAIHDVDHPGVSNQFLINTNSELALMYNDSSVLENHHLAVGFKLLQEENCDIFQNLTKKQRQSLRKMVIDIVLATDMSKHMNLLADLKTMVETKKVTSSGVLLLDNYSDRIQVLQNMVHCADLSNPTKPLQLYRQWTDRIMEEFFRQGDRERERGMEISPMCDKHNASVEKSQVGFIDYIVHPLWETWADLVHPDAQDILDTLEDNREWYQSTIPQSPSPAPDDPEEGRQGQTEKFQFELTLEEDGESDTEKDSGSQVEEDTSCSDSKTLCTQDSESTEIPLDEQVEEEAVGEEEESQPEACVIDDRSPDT

Glucocorticoid receptor = molecular target: T3, Glucocorticoid receptor (Homo sapiens, UniProt P04150)
T3 sequence (P04150 whole entry): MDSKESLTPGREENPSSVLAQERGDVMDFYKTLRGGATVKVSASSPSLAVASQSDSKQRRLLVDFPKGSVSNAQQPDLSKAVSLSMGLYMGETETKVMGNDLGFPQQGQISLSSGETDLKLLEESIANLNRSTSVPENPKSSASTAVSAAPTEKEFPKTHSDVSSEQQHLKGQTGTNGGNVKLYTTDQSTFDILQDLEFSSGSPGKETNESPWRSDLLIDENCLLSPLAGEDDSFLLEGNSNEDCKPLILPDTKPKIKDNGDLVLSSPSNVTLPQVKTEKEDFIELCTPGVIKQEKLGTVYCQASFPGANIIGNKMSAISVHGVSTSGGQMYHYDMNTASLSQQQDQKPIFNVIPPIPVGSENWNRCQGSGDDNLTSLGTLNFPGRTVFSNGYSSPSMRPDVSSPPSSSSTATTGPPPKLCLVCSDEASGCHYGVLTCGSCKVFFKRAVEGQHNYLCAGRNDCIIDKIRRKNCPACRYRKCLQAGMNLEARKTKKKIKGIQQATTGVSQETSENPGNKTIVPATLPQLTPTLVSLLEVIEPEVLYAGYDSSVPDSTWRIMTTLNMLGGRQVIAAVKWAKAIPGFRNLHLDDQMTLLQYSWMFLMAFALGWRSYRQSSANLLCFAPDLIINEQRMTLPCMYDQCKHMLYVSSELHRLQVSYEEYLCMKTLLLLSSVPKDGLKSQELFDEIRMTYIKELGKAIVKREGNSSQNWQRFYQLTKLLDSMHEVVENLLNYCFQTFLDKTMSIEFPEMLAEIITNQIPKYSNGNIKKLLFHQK

[4] = molecular target: T4, Equilibrative nucleoside transporter 1 (Homo sapiens, UniProt Q99808)
T4 sequence (Q99808 whole entry): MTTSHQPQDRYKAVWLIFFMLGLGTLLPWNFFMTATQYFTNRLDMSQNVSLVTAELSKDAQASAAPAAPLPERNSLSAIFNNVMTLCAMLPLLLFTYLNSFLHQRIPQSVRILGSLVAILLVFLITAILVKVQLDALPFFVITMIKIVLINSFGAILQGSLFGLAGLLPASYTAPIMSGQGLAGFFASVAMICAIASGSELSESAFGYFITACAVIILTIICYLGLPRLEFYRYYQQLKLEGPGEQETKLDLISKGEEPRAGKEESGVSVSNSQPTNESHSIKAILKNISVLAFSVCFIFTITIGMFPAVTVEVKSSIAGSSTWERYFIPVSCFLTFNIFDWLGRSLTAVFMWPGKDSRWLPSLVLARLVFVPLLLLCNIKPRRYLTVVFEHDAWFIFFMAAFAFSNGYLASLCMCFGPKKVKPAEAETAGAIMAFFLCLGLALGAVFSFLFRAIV

Histamine H3 receptor = Histamine H3 receptor (Homo sapiens, UniProt Q9Y5N1)
Chain of Histamine H3 receptor (Q9Y5N1 whole entry): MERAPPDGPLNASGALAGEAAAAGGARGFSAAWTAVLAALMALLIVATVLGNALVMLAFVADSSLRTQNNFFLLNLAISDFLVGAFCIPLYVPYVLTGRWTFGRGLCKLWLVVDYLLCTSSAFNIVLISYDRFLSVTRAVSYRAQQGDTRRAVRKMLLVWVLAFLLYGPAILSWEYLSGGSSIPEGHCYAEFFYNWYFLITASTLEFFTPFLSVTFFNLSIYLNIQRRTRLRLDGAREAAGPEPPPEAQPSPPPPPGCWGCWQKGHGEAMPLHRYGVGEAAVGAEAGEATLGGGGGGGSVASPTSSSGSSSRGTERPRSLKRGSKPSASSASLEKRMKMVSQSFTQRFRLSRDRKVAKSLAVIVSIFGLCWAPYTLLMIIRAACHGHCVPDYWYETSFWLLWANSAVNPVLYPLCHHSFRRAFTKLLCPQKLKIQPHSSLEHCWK

[5] = molecular target: T5, 5-hydroxytryptamine receptor 3A (Homo sapiens, UniProt P46098); type: functional
T5 sequence (P46098 whole entry): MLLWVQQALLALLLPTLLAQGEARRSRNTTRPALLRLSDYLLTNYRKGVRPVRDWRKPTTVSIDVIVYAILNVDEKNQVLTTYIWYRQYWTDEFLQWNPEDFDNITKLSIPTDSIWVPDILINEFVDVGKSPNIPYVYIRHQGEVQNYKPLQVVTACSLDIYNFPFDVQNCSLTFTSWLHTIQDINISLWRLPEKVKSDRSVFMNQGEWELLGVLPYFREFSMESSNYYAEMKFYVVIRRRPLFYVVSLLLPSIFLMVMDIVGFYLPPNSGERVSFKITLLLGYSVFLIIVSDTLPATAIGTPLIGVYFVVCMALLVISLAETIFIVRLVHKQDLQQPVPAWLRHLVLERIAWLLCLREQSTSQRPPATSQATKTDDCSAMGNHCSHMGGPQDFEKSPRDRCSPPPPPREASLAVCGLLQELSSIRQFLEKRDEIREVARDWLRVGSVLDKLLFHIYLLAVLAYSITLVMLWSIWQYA
Note: assay procedure not described here.

Compound `CC(C(=O)O)c1ccc(N2Cc3ccccc3C2=O)cc1` (stereo unspecified) [INDOPROFEN] has an AC50 [1] of over 30 µM, an AC50 [2] of over 30 µM and an AC50 [3] of over 30 µM. It also gave an AC50 (Glucocorticoid receptor) of over 30 µM, an AC50 [4] of over 30 µM and an AC50 (Histamine H3 receptor) of over 30 µM. For the same compound, the AC50 [5] was over 30 µM.
`CC(C)OC(=O)CCC/C=C\C[C@@H]1[C@@H](CC[C@@H](O)CCc2ccccc2)[C@H](O)C[C@@H]1O` [LATANOPROST] gave an AC50 [1] of over 30 µM, an AC50 [2] of over 30 µM and an AC50 [3] of over 30 µM. For the same compound, the AC50 (Glucocorticoid receptor) was over 30 µM, the AC50 [4] was over 30 µM and the AC50 (Histamine H3 receptor) was over 30 µM. It also gave an AC50 [5] of over 30 µM.
For `CN1C(=O)C(O)N=C(c2ccccc2Cl)c2cc(Cl)ccc21` (stereo unspecified) [LORMETAZEPAM], the AC50 [1] was over 30 µM, the AC50 [2] was 16 µM and the AC50 [3] was 5.6 µM. The AC50 (Glucocorticoid receptor) was over 30 µM, the AC50 [4] was over 30 µM and the AC50 (Histamine H3 receptor) was over 30 µM. The AC50 [5] was over 30 µM.
Compound `O=C(O)CCCCCCNC1c2ccccc2CCc2ccccc21` [AMINEPTINE] has an AC50 [1] of over 30 µM, an AC50 [2] of over 30 µM and an AC50 [3] of over 30 µM. It also gave an AC50 (Glucocorticoid receptor) of over 30 µM, an AC50 [4] of over 30 µM and an AC50 (Histamine H3 receptor) of over 30 µM. For the same compound, the AC50 [5] was over 30 µM.
`O=C(NCCNCC(O)COc1ccc(O)cc1)N1CCOCC1` (stereo unspecified) [XAMOTEROL] was tested, and the AC50 [1] was over 30 µM, the AC50 [2] was over 30 µM and the AC50 [3] was over 30 µM. The AC50 (Glucocorticoid receptor) was over 30 µM, the AC50 [4] was over 30 µM and the AC50 (Histamine H3 receptor) was over 30 µM. For the same compound, the AC50 [5] was over 30 µM.
Work on `CC(C)=CCC/C(C)=C/C=C/C(C)=C/C=C/C(C)=C/C=C/C=C(C)/C=C/C=C(C)/C=C/C=C(\C)CCC=C(C)C` [LYCOPENE] yielded an AC50 [1] of over 30 µM, an AC50 [2] of over 30 µM and an AC50 [3] of over 30 µM. The AC50 (Glucocorticoid receptor) was over 30 µM, the AC50 [4] was over 30 µM and the AC50 (Histamine H3 receptor) was over 30 µM. For the same compound, the AC50 [5] was over 30 µM.
Work on `CN1CCC(=C2c3ccccc3CCc3sccc32)CC1` [PIZOTYLINE] yielded an AC50 [1] of over 30 µM, an AC50 [2] of over 30 µM and an AC50 [3] of over 10 µM. For the same compound, the AC50 (Glucocorticoid receptor) was over 30 µM, the AC50 [4] was over 30 µM and the AC50 (Histamine H3 receptor) was over 10 µM. The AC50 [5] was 1.4 µM.
With `Nc1nc(/C(=C/CC(=O)O)C(=O)N[C@@H]2C(=O)N3C(C(=O)O)=CCS[C@H]23)cs1` [CEFTIBUTEN] the AC50 [1] was over 30 µM, the AC50 [2] was over 30 µM and the AC50 [3] was over 30 µM. It also gave an AC50 (Glucocorticoid receptor) of over 30 µM, an AC50 [4] of over 30 µM and an AC50 (Histamine H3 receptor) of over 30 µM. The AC50 [5] was over 30 µM.
